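Five compound concentrations were applied to cells in 96-well plates for 48 hours; endpoints were derived by simple linear interpolation of the resulting dose-response curve. GI50 marks 50% less growth. At the TGI there is no net growth.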
Legend:
Assay in all cases: NCI anticancer screen, dose series, 48 h
[1] = test system: CCRF-CEM leukemia
[2] = test system: NCI-H226 lung
[3] = test system: SF-295 CNS
[4] = test system: M14 melanoma
[5] = test system: SR leukemia
[6] = test system: SN12C renal
[7] = test system: UACC-62 melanoma
[8] = test system: OVCAR-8 ovarian
[9] = test system: MALME-3M melanoma
[10] = test system: HT29 colon
[11] = test system: UO-31 renal
[12] = test system: OVCAR-3 ovarian
[13] = test system: HCT-15 colon
[14] = test system: SF-539 CNS
[15] = test system: SK-MEL-2 melanoma
[16] = test system: DMS 114 small cell lung
[17] = test system: MOLT-4 leukemia
[18] = test system: HOP-62 NSCLC
[19] = test system: UACC-257 melanoma
[20] = test system: EKVX NSCLC
[21] = test system: IGROV1 ovarian
[22] = test system: OVCAR-4 ovarian
[23] = test system: ACHN renal
[24] = test system: HL-60(TB) leukemia
[25] = test system: A498 renal
[26] = test system: HCT-116 colon
[27] = test system: OVCAR-5 ovarian
[28] = test system: COLO 205 colon
[29] = test system: NCI-H23 lung
[30] = test system: KM20L2 colon
[31] = test system: SK-OV-3 ovarian
[32] = test system: A549 NSCLC
[33] = test system: U251 CNS
[34] = test system: TK-10 renal
[35] = test system: RPMI-8226 leukemia
[36] = test system: KM12 colon
[37] = test system: 786-0 renal
[38] = test system: CAKI-1 renal
[39] = test system: SNB-78 CNS
[40] = test system: M19-MEL melanoma
[41] = test system: DLD-1 colon
[42] = test system: LXFL 529 NSCLC
[43] = test system: NCI-H460 lung
[44] = test system: LOX IMVI melanoma
[45] = test system: K-562 leukemia
[46] = test system: SW-620 colon
[47] = test system: SK-MEL-5 melanoma
[48] = test system: SNB-19 CNS
[49] = test system: SF-268 CNS
[50] = test system: RXF 393 renal
[51] = test system: HOP-18 NSCLC
[52] = test system: HOP-92 NSCLC
[53] = test system: SNB-75 CNS
[54] = test system: HCC-2998 colon
[55] = test system: SK-MEL-28 melanoma
[56] = test system: XF 498 CNS
[57] = test system: DMS 273 small cell lung
[58] = test system: NCI-H522 lung

## COC(=O)C1CC2C=CC=CC(=O)C2(C)C1 (stereo unspecified)
[1]
  TGI: 71.8 µM
[2]
  TGI: > 100 µM
[3]
  TGI: > 100 µM
[4]
  TGI: 88.5 µM
[5]
  TGI: 76.5 µM
[6]
  TGI: > 100 µM
[7]
  TGI: > 100 µM
[8]
  TGI: > 100 µM
[9]
  TGI: > 100 µM
[10]
  TGI: > 100 µM
[11]
  TGI: > 100 µM
[12]
  TGI: > 100 µM
[13]
  TGI: > 100 µM
[14]
  TGI: > 100 µM
[15]
  TGI: > 100 µM
[16]
  TGI: > 100 µM
[17]
  TGI: > 100 µM
[18]
  TGI: > 100 µM
[19]
  TGI: > 100 µM
[20]
  TGI: > 100 µM
[21]
  TGI: > 100 µM
[22]
  TGI: > 100 µM
[23]
  TGI: > 100 µM
[24]
  TGI: 55.1 µM
[25]
  TGI: > 100 µM
[26]
  TGI: 86.3 µM
[27]
  TGI: > 100 µM
[28]
  TGI: > 100 µM
[29]
  TGI: > 100 µM
[30]
  TGI: > 100 µM
[31]
  TGI: > 100 µM
[32]
  TGI: > 100 µM
[33]
  TGI: > 100 µM
[34]
  TGI: > 100 µM
[35]
  TGI: 59.5 µM
[36]
  TGI: > 100 µM
[37]
  TGI: > 100 µM
[38]
  TGI: > 100 µM
[39]
  TGI: > 100 µM
[40]
  TGI: > 100 µM
[41]
  TGI: 28.9 µM
[42]
  TGI: > 100 µM
[43]
  TGI: > 100 µM
[44]
  TGI: > 100 µM
[45]
  TGI: > 100 µM
[46]
  TGI: 90.1 µM
[47]
  TGI: > 100 µM
[48]
  TGI: > 100 µM
[49]
  TGI: > 100 µM

## NC1NC=NC2C1N=CN2C1OC(CO)C2[O][Sn][O]C21 (stereo unspecified)
[1]
  GI50: > 100 µM
  TGI: > 100 µM
[50]
  GI50: > 100 µM
  TGI: > 100 µM
[2]
  GI50: > 100 µM
  TGI: > 100 µM
[3]
  GI50: > 100 µM
  TGI: > 100 µM
[4]
  GI50: > 100 µM
  TGI: > 100 µM
[6]
  GI50: 1.98 µM
  TGI: > 100 µM
[7]
  GI50: > 100 µM
  TGI: > 100 µM
[51]
  GI50: > 100 µM
  TGI: > 100 µM
[8]
  GI50: > 100 µM
  TGI: > 100 µM
[9]
  GI50: > 100 µM
  TGI: > 100 µM
[10]
  GI50: > 100 µM
  TGI: > 100 µM
[11]
  GI50: > 100 µM
  TGI: > 100 µM
[12]
  GI50: > 100 µM
  TGI: > 100 µM
[13]
  GI50: 0.384 µM
  TGI: > 100 µM
[14]
  GI50: > 100 µM
  TGI: > 100 µM
[15]
  GI50: > 100 µM
  TGI: > 100 µM
[52]
  GI50: 27.5 µM
  TGI: > 100 µM
[16]
  GI50: > 100 µM
  TGI: > 100 µM
[17]
  GI50: > 100 µM
  TGI: > 100 µM
[18]
  GI50: > 100 µM
  TGI: > 100 µM
[19]
  GI50: > 100 µM
  TGI: > 100 µM
[20]
  GI50: > 100 µM
  TGI: > 100 µM
[21]
  GI50: > 100 µM
  TGI: > 100 µM
[22]
  GI50: > 100 µM
  TGI: > 100 µM
[23]
  GI50: > 100 µM
  TGI: > 100 µM
[53]
  GI50: > 100 µM
  TGI: > 100 µM
[24]
  GI50: > 100 µM
  TGI: > 100 µM
[25]
  GI50: > 100 µM
  TGI: > 100 µM
[26]
  GI50: > 100 µM
  TGI: > 100 µM
[27]
  GI50: > 100 µM
  TGI: > 100 µM
[28]
  GI50: > 100 µM
  TGI: > 100 µM
[29]
  GI50: > 100 µM
  TGI: > 100 µM
[30]
  GI50: > 100 µM
  TGI: > 100 µM
[31]
  GI50: > 100 µM
  TGI: > 100 µM
[32]
  GI50: > 100 µM
  TGI: > 100 µM
[33]
  GI50: > 100 µM
  TGI: > 100 µM
[54]
  GI50: > 100 µM
  TGI: > 100 µM
[34]
  GI50: > 100 µM
  TGI: > 100 µM
[55]
  GI50: > 100 µM
  TGI: > 100 µM
[35]
  GI50: > 100 µM
  TGI: > 100 µM
[36]
  GI50: > 100 µM
  TGI: > 100 µM
[56]
  GI50: 1.15 µM
  TGI: 52.7 µM
[37]
  GI50: > 100 µM
  TGI: > 100 µM
[38]
  GI50: > 100 µM
  TGI: > 100 µM
[39]
  GI50: > 100 µM
  TGI: > 100 µM
[40]
  GI50: > 100 µM
  TGI: > 100 µM
[57]
  GI50: > 100 µM
  TGI: > 100 µM
[42]
  GI50: > 100 µM
  TGI: > 100 µM
[43]
  GI50: > 100 µM
  TGI: > 100 µM
[44]
  GI50: > 100 µM
  TGI: > 100 µM
[45]
  GI50: > 100 µM
  TGI: > 100 µM
[58]
  GI50: > 100 µM
  TGI: > 100 µM
[46]
  GI50: > 100 µM
  TGI: > 100 µM
[47]
  GI50: > 100 µM
  TGI: > 100 µM
[48]
  GI50: > 100 µM
  TGI: > 100 µM
[49]
  GI50: > 100 µM
  TGI: > 100 µM

Reference: PubChem BioAssay (NCI)
